From the supplement of paper PMC10307832 come the findings set out here.

Common to all, as to assay: relative viability (nuclei count vs DMSO), 5 days (fraction); higher = more cells survive
Compound in the assay “Sulindac + Dasatinib”: CC1=C(CC(=O)O)c2cc(F)ccc2/C1=C\c1ccc([S+](C)[O-])cc1 [Sulindac] + Cc1nc(Nc2ncc(C(=O)Nc3c(C)cccc3Cl)s2)cc(N2CCN(CCO)CC2)n1 [Dasatinib] (partner 0.075 µM)
Put shortly:
(§1)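 Nuclei were stained with Hoechst during a one-step fixation (final 0.05% Triton X-100, 1% formaldehyde, 1 ug/ml Hoechst) carried out 5 days after dosing, then counted on 4× images. The cells, lung cancer lines in 1536-well plates, had been dosed by pin tool the day after seeding with one drug alone or a fixed anchor-drug dose plus five library-drug doses (not always all listed) in √10 steps. Relative viability is the nuclei count in treated wells divided by that in vehicle wells, and each value is the median of duplicate plates.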

Compound in the assay “Staurosporine + OSI-027”: CN[C@@H]1C[C@H]2O[C@@](C)([C@@H]1OC)n1c3ccccc3c3c4c(c5c6ccccc6n2c5c31)C(=O)NC4 [Staurosporine] + COc1cccc2cc(-c3nc([C@H]4CC[C@H](C(=O)O)CC4)n4ncnc(N)c34)[nH]c12 [OSI-027] (partner 0.5 µM)
Put shortly:
as §1

Compound in the assay “Staurosporine + AZD7762”: CN[C@@H]1C[C@H]2O[C@@](C)([C@@H]1OC)n1c3ccccc3c3c4c(c5c6ccccc6n2c5c31)C(=O)NC4 [Staurosporine] + NC(=O)Nc1cc(-c2cccc(F)c2)sc1C(=O)N[C@H]1CCCNC1 [AZD7762] (partner 0.2 µM)
The gist of the method:
as §1

Compound in the assay “Sulindac + Palbociclib”: CC1=C(CC(=O)O)c2cc(F)ccc2/C1=C\c1ccc([S+](C)[O-])cc1 [Sulindac] + CC(=O)c1c(C)c2cnc(Nc3ccc(N4CCNCC4)cn3)nc2n(C2CCCC2)c1=O [Palbociclib] (partner 0.5 µM)
Put shortly:
as §1

With PC-3 [JPC-3], the relative viability in the assay with Sulindac + Dasatinib (first compound 0.08 µM) came to 0.878; with Sulindac + Dasatinib (first compound 0.253 µM) it was 1.05; with Sulindac + Dasatinib (first compound 0.8 µM) it was 0.772; with Sulindac + Dasatinib (first compound 2.53 µM), 1.02; in the assay with Sulindac + Dasatinib (first compound 8 µM), 1.04; in the assay with Staurosporine + OSI-027 (first compound 0.005 µM), 0.678. The relative viability in the assay with Staurosporine + OSI-027 (first compound 0.01581 µM) stood at 0.295; with Staurosporine + OSI-027 (first compound 0.05 µM), 0.39; in the assay with Staurosporine + OSI-027 (first compound 0.1581 µM) it was 0.303; in the assay with Staurosporine + OSI-027 (first compound 0.5 µM), 0.229; with Staurosporine + AZD7762 (first compound 0.005 µM), 0.829; with Staurosporine + AZD7762 (first compound 0.01581 µM) it was 0.472. Besides, the relative viability in the assay with Staurosporine + AZD7762 (first compound 0.05 µM) was 0.357; with Staurosporine + AZD7762 (first compound 0.1581 µM), 0.327; with Staurosporine + AZD7762 (first compound 0.5 µM), 0.332; with Sulindac + Palbociclib (first compound 0.08 µM), 0.477; in the assay with Sulindac + Palbociclib (first compound 0.253 µM), 0.521; in the assay with Sulindac + Palbociclib (first compound 0.8 µM) it was 0.596. Also, the results for the relative viability with Sulindac + Palbociclib (first compound 2.53 µM) and in the assay with Sulindac + Palbociclib (first compound 8 µM) were 0.502 and 0.545, respectively.
For PC-14, the relative viability came to 0.25 with Sulindac + Dasatinib (first compound 0.08 µM); 0.293 in the assay with Sulindac + Dasatinib (first compound 0.253 µM); 0.222 with Sulindac + Dasatinib (first compound 2.53 µM); 0.369 in the assay with Sulindac + Dasatinib (first compound 8 µM); 0.325 in the assay with Staurosporine + OSI-027 (first compound 0.005 µM); 0.0499 with Staurosporine + OSI-027 (first compound 0.01581 µM). Further, the relative viability in the assay with Staurosporine + OSI-027 (first compound 0.05 µM) came out at 0.0618; with Staurosporine + OSI-027 (first compound 0.1581 µM), 0.0552; with Staurosporine + OSI-027 (first compound 0.5 µM) it was 0.0305; with Staurosporine + AZD7762 (first compound 0.005 µM), 0.302; with Staurosporine + AZD7762 (first compound 0.01581 µM) it was 0.0766; with Staurosporine + AZD7762 (first compound 0.05 µM) it was 0.0421. Besides, the relative viability with Staurosporine + AZD7762 (first compound 0.1581 µM) stood at 0.0892; in the assay with Staurosporine + AZD7762 (first compound 0.5 µM) it was 0.0415; with Sulindac + Palbociclib (first compound 0.08 µM) it was 0.562; with Sulindac + Palbociclib (first compound 0.253 µM), 0.497; with Sulindac + Palbociclib (first compound 0.8 µM) it was 0.489; with Sulindac + Palbociclib (first compound 2.53 µM), 0.567. Also, the relative viability in the assay with Sulindac + Palbociclib (first compound 8 µM) came to 0.758.
As for RERF-LC-KJ, the relative viability is 1.03 with Sulindac + Dasatinib (first compound 0.08 µM); 0.973 with Sulindac + Dasatinib (first compound 0.253 µM); 0.692 with Sulindac + Dasatinib (first compound 0.8 µM); 0.802 in the assay with Sulindac + Dasatinib (first compound 2.53 µM); 0.838 with Sulindac + Dasatinib (first compound 8 µM); 0.475 in the assay with Staurosporine + OSI-027 (first compound 0.005 µM). Further, the relative viability with Staurosporine + OSI-027 (first compound 0.01581 µM) was found to be 0.3; with Staurosporine + OSI-027 (first compound 0.05 µM), 0.234; in the assay with Staurosporine + OSI-027 (first compound 0.1581 µM), 0.234; with Staurosporine + OSI-027 (first compound 0.5 µM), 0.181; with Staurosporine + AZD7762 (first compound 0.005 µM) it was 1.07; in the assay with Staurosporine + AZD7762 (first compound 0.01581 µM), 0.804. The relative viability with Staurosporine + AZD7762 (first compound 0.05 µM) amounted to 0.436; with Staurosporine + AZD7762 (first compound 0.1581 µM), 0.24; with Staurosporine + AZD7762 (first compound 0.5 µM), 0.177; in the assay with Sulindac + Palbociclib (first compound 0.08 µM), 1.1; in the assay with Sulindac + Palbociclib (first compound 0.253 µM), 1.11; with Sulindac + Palbociclib (first compound 0.8 µM), 1.04. The relative viability with Sulindac + Palbociclib (first compound 2.53 µM) was 1.12; in the assay with Sulindac + Palbociclib (first compound 8 µM), 1.07.
As for SW 900, the relative viability is 0.582 with Sulindac + Dasatinib (first compound 0.253 µM); 0.524 with Sulindac + Dasatinib (first compound 2.53 µM); 0.623 with Sulindac + Dasatinib (first compound 8 µM); 0.334 in the assay with Staurosporine + OSI-027 (first compound 0.005 µM); 0.182 with Staurosporine + OSI-027 (first compound 0.01581 µM); 0.204 with Staurosporine + OSI-027 (first compound 0.05 µM). In addition, the relative viability with Staurosporine + OSI-027 (first compound 0.1581 µM) was found to be 0.108; in the assay with Staurosporine + OSI-027 (first compound 0.5 µM), 0.0798; with Staurosporine + AZD7762 (first compound 0.005 µM), 0.413; in the assay with Staurosporine + AZD7762 (first compound 0.01581 µM), 0.337; with Staurosporine + AZD7762 (first compound 0.05 µM), 0.31; with Staurosporine + AZD7762 (first compound 0.1581 µM), 0.157. The relative viability was 0.151 in the assay with Staurosporine + AZD7762 (first compound 0.5 µM), 0.479 in the assay with Sulindac + Palbociclib (first compound 0.08 µM), 0.584 in the assay with Sulindac + Palbociclib (first compound 0.253 µM) and 0.496 with Sulindac + Palbociclib (first compound 8 µM).
